Results published in ChEMBL document CHEMBL4665624, “Synthesis of 5-(4-(1H-phenanthro[9,10-d]imidazol-2-yl)benzylidene)thiazolidine-2,4-dione as promising DNA and serum albumin-binding agents and evaluation of antitumor activity” (Eur J Med Chem, 2019).

Experiments:
BT-549 = test: Antitumor activity against human BT-549 cells assessed as cell growth inhibition at 10 uM incubated for 48 hrs by sulforhodamine B assay; type: functional; settings: read-out: GI
RXF 393 = test: Antitumor activity against human RXF 393 cells assessed as cell growth inhibition at 10 uM incubated for 48 hrs by sulforhodamine B assay; type: functional; settings: read-out: GI
K562 = test: Antitumor activity against human K562 cells assessed as cell growth inhibition at 10 uM incubated for 48 hrs by sulforhodamine B assay; type: functional; settings: read-out: GI
Malme-3M = test: Antitumor activity against human MALME-3M cells assessed as cell growth inhibition at 10 uM incubated for 48 hrs by sulforhodamine B assay; type: functional; settings: read-out: GI
M14 = test: Antitumor activity against human M14 cells assessed as cell growth inhibition at 10 uM incubated for 48 hrs by sulforhodamine B assay; type: functional; settings: read-out: GI
SF-295 = test: Antitumor activity against human SF295 cells assessed as cell growth inhibition at 10 uM incubated for 48 hrs by sulforhodamine B assay; type: functional; settings: read-out: GI
HCC 2998 = test: Antitumor activity against human HCC2998 cells assessed as cell growth inhibition at 10 uM incubated for 48 hrs by sulforhodamine B assay; type: functional; settings: read-out: GI
NCI-H460 = test: Antitumor activity against human NCI-H460 assessed as cell growth inhibition at 10 uM incubated for 48 hrs by sulforhodamine B assay; type: functional; settings: read-out: GI
KM12 = test: Antitumor activity against human KM12 cells assessed as cell growth inhibition at 10 uM incubated for 48 hrs by sulforhodamine B assay; type: functional; settings: read-out: GI
MCF7 = test: Antitumor activity against human MCF7 cells assessed as cell growth inhibition at 10 uM incubated for 48 hrs by sulforhodamine B assay; type: functional; settings: read-out: GI
LOX IMVI = test: Antitumor activity against human LOX IMVI cells assessed as cell growth inhibition at 10 uM incubated for 48 hrs by sulforhodamine B assay; type: functional; settings: read-out: GI
ACHN = test: Antitumor activity against human ACHN cells assessed as cell growth inhibition at 10 uM incubated for 48 hrs by sulforhodamine B assay; type: functional; settings: read-out: GI
MDA-MB-435 = test: Antitumor activity against human MDA-MB-435 cells assessed as cell growth inhibition at 10 uM incubated for 48 hrs by sulforhodamine B assay; type: functional; settings: read-out: GI
HT-29 = test: Antitumor activity against human HT-29 cells assessed as cell growth inhibition at 10 uM incubated for 48 hrs by sulforhodamine B assay; type: functional; settings: read-out: GI
NCI-H226 = test: Antitumor activity against human NCI-H226 assessed as cell growth inhibition at 10 uM incubated for 48 hrs by sulforhodamine B assay; type: functional; settings: read-out: GI
COLO 205 = test: Antitumor activity against human COLO205 cells assessed as cell growth inhibition at 10 uM incubated for 48 hrs by sulforhodamine B assay; type: functional; settings: read-out: GI
SK-OV-3 = test: Antitumor activity against human SK-OV-3 cells assessed as cell growth inhibition at 10 uM incubated for 48 hrs by sulforhodamine B assay; type: functional; settings: read-out: GI
OVCAR-4 = test: Antitumor activity against human OVCAR-4 cells assessed as cell growth inhibition at 10 uM incubated for 48 hrs by sulforhodamine B assay; type: functional; settings: read-out: GI
HL-60(TB) = test: Antitumor activity against human HL-60(TB) cells assessed as cell growth inhibition at 10 uM incubated for 48 hrs by sulforhodamine B assay; type: functional; settings: read-out: GI
OVCAR-3 = test: Antitumor activity against human OVCAR-3 cells assessed as cell growth inhibition at 10 uM incubated for 48 hrs by sulforhodamine B assay; type: functional; settings: read-out: GI
A498 = test: Antitumor activity against human A498 cells assessed as cell growth inhibition at 10 uM incubated for 48 hrs by sulforhodamine B assay; type: functional; settings: read-out: GI
SR = test: Antitumor activity against human SR cells assessed as cell growth inhibition at 10 uM incubated for 48 hrs by sulforhodamine B assay; type: functional; settings: read-out: GI
UO-31 = test: Antitumor activity against human UO-31 cells assessed as cell growth inhibition at 10 uM incubated for 48 hrs by sulforhodamine B assay; type: functional; settings: read-out: GI
SN12C = test: Antitumor activity against human SN12C cells assessed as cell growth inhibition at 10 uM incubated for 48 hrs by sulforhodamine B assay; type: functional; settings: read-out: GI
RPMI-8226 = test: Antitumor activity against human RPMI8226 cells assessed as cell growth inhibition at 10 uM incubated for 48 hrs by sulforhodamine B assay; type: functional; settings: read-out: GI
NCI/ADR-RES = test: Antitumor activity against human NCI/ADR-RES cells assessed as cell growth inhibition at 10 uM incubated for 48 hrs by sulforhodamine B assay; type: functional; settings: read-out: GI
OVCAR-8 = test: Antitumor activity against human OVCAR-8 cells assessed as cell growth inhibition at 10 uM incubated for 48 hrs by sulforhodamine B assay; type: functional; settings: read-out: GI
HCT-116 = test: Antitumor activity against human HCT116 cells assessed as cell growth inhibition at 10 uM incubated for 48 hrs by sulforhodamine B assay; type: functional; settings: read-out: GI
SK-MEL-28 = test: Antitumor activity against human SK-MEL-28 cells assessed as cell growth inhibition at 10 uM incubated for 48 hrs by sulforhodamine B assay; type: functional; settings: read-out: GI
NCI-H23 = test: Antitumor activity against human NCI-H23 cells assessed as cell growth inhibition at 10 uM incubated for 48 hrs by sulforhodamine B assay; type: functional; settings: read-out: GI
NCI-H522 = test: Antitumor activity against human NCI-H522 cells assessed as cell growth inhibition at 10 uM incubated for 48 hrs by sulforhodamine B assay; type: functional; settings: read-out: GI
PC-3 = test: Antitumor activity against human PC-3 cells assessed as cell growth inhibition at 10 uM incubated for 48 hrs by sulforhodamine B assay; type: functional; settings: read-out: GI
MOLT-4 = test: Antitumor activity against human MOLT4 cells assessed as cell growth inhibition at 10 uM incubated for 48 hrs by sulforhodamine B assay; type: functional; settings: read-out: GI
HOP-92 = test: Antitumor activity against human HOP92 cells assessed as cell growth inhibition at 10 uM incubated for 48 hrs by sulforhodamine B assay; type: functional; settings: read-out: GI
SW-620 = test: Antitumor activity against human SW620 cells assessed as cell growth inhibition at 10 uM incubated for 48 hrs by sulforhodamine B assay; settings: SW-620, 48 h, read-out: GI
SNB-75 = test: Antitumor activity against human SNB-75 cells assessed as cell growth inhibition at 10 uM incubated for 48 hrs by sulforhodamine B assay; type: functional; settings: read-out: GI
SNB-19 = test: Antitumor activity against human SNB-19 cells assessed as cell growth inhibition at 10 uM incubated for 48 hrs by sulforhodamine B assay; type: functional; settings: read-out: GI
MDA-MB-231 = test: Antitumor activity against human MDA-MB-231/ATCC cells assessed as cell growth inhibition at 10 uM incubated for 48 hrs by sulforhodamine B assay; type: functional; settings: read-out: GI
CCRF-CEM = test: Antitumor activity against human CCRF-CEM cells assessed as cell growth inhibition at 10 uM incubated for 48 hrs by sulforhodamine B assay; type: functional; settings: read-out: GI
IGROV-1 = test: Antitumor activity against human IGROV1 cells assessed as cell growth inhibition at 10 uM incubated for 48 hrs by sulforhodamine B assay; type: functional; settings: read-out: GI
U-251 = test: Antitumor activity against human U251 cells assessed as cell growth inhibition at 10 uM incubated for 48 hrs by sulforhodamine B assay; type: functional; settings: read-out: GI
EKVX = test: Antitumor activity against human EKVX cells assessed as cell growth inhibition at 10 uM incubated for 48 hrs by sulforhodamine B assay; type: functional; settings: read-out: GI
HCT-15 = test: Antitumor activity against human HCT15 cells assessed as cell growth inhibition at 10 uM incubated for 48 hrs by sulforhodamine B assay; type: functional; settings: read-out: GI
786-0 = test: Antitumor activity against human 786-0 cells assessed as cell growth inhibition at 10 uM incubated for 48 hrs by sulforhodamine B assay; type: functional; settings: read-out: GI
UACC-62 = test: Antitumor activity against human UACC-62 cells assessed as cell growth inhibition at 10 uM incubated for 48 hrs by sulforhodamine B assay; type: functional; settings: read-out: GI
MDA-MB-468 = test: Antitumor activity against human MDA-MB-468 cells assessed as cell growth inhibition at 10 uM incubated for 48 hrs by sulforhodamine B assay; type: functional; settings: read-out: GI
SF-268 = test: Antitumor activity against human SF268 cells assessed as cell growth inhibition at 10 uM incubated for 48 hrs by sulforhodamine B assay; type: functional; settings: read-out: GI
Hs-578T = test: Antitumor activity against human HS 578T cells assessed as cell growth inhibition at 10 uM incubated for 48 hrs by sulforhodamine B assay; type: functional; settings: read-out: GI

Q: How did the inhibition of growth at 10 µM (BT-549) turn out when c1cc2ccc3ccc(-c4nc5c6ccccc6c6ccccc6c5[nH]4)c4ccc(c1)c2c34 was run?
A: < 10%

Q: And the inhibition of growth at 10 µM (RXF 393)?
A: < 10%

Q: And the inhibition of growth at 10 µM (K562)?
A: < 10%

Q: And the inhibition of growth at 10 µM (Malme-3M)?
A: < 10%

Q: And the inhibition of growth at 10 µM (M14)?
A: < 10%

Q: And the inhibition of growth at 10 µM (SF-295)?
A: < 10%

Q: What about the inhibition of growth at 10 µM (HCC 2998) of the same compound?
A: < 10%

Q: And the inhibition of growth at 10 µM (NCI-H460)?
A: < 10%

Q: What about the inhibition of growth at 10 µM (KM12) of the same compound?
A: 13.5%

Q: And the inhibition of growth at 10 µM (MCF7)?
A: 23.1%

Q: And the inhibition of growth at 10 µM (LOX IMVI)?
A: 13.7%

Q: What about the inhibition of growth at 10 µM (ACHN) of the same compound?
A: 10.3%

Q: And the inhibition of growth at 10 µM (MDA-MB-435)?
A: < 10%

Q: And the inhibition of growth at 10 µM (HT-29)?
A: < 10%

Q: And the inhibition of growth at 10 µM (NCI-H226)?
A: 76.2%

Q: And the inhibition of growth at 10 µM (COLO 205)?
A: < 10%

Q: And the inhibition of growth at 10 µM (SK-OV-3)?
A: < 10%

Q: What about the inhibition of growth at 10 µM (OVCAR-4) of the same compound?
A: < 10%

Q: What about the inhibition of growth at 10 µM (HL-60(TB)) of the same compound?
A: < 10%

Q: What about the inhibition of growth at 10 µM (OVCAR-3) of the same compound?
A: < 10%

Q: What about the inhibition of growth at 10 µM (A498) of the same compound?
A: 36.3%

Q: And the inhibition of growth at 10 µM (SR)?
A: 23.7%

Q: And the inhibition of growth at 10 µM (UO-31)?
A: 37.2%

Q: What about the inhibition of growth at 10 µM (SN12C) of the same compound?
A: < 10%

Q: What about the inhibition of growth at 10 µM (RPMI-8226) of the same compound?
A: 10.6%

Q: What about the inhibition of growth at 10 µM (NCI/ADR-RES) of the same compound?
A: < 10%

Q: And the inhibition of growth at 10 µM (OVCAR-8)?
A: < 10%

Q: And the inhibition of growth at 10 µM (HCT-116)?
A: 16.6%

Q: What about the inhibition of growth at 10 µM (SK-MEL-28) of the same compound?
A: < 10%

Q: What about the inhibition of growth at 10 µM (NCI-H23) of the same compound?
A: < 10%

Q: And the inhibition of growth at 10 µM (NCI-H522)?
A: 17.5%

Q: And the inhibition of growth at 10 µM (PC-3)?
A: 21.2%

Q: And the inhibition of growth at 10 µM (MOLT-4)?
A: 26.8%

Q: What about the inhibition of growth at 10 µM (HOP-92) of the same compound?
A: 27.1%

Q: And the inhibition of growth at 10 µM (SW-620)?
A: < 10%

Q: And the inhibition of growth at 10 µM (SNB-75)?
A: < 10%

Q: And the inhibition of growth at 10 µM (SNB-19)?
A: < 10%

Q: What about the inhibition of growth at 10 µM (MDA-MB-231) of the same compound?
A: 23.2%

Q: And the inhibition of growth at 10 µM (CCRF-CEM)?
A: 10.3%

Q: And the inhibition of growth at 10 µM (IGROV-1)?
A: 13.2%

Q: And the inhibition of growth at 10 µM (U-251)?
A: < 10%

Q: What about the inhibition of growth at 10 µM (EKVX) of the same compound?
A: < 10%

Q: And the inhibition of growth at 10 µM (HCT-15)?
A: < 10%

Q: And the inhibition of growth at 10 µM (786-0)?
A: < 10%

Q: And the inhibition of growth at 10 µM (UACC-62)?
A: 38.4%

Q: And the inhibition of growth at 10 µM (MDA-MB-468)?
A: 78.1%

Q: What about the inhibition of growth at 10 µM (SF-268) of the same compound?
A: 14.6%

Q: And the inhibition of growth at 10 µM (Hs-578T)?
A: < 10%
